Assay results: ChEMBL document CHEMBL1151049, “Bis-quinolinium cyclophanes: A novel class of potent blockers of the apamin-sensitive Ca2+-activated K+ channel” (Bioorg Med Chem Lett, 1997)

Legend:
[1] = molecular target: Small conductance calcium-activated potassium channel protein 2 (Rattus norvegicus, UniProt P70604); assay: Inhibitory concentration of compound required for SKCa blocking action was assessed from its ability to inhibit After hyperpolarisation (AHP) in cultured rat sympathetic neurons; type: functional, cell-based, Sympathetic neuron
Rattus norvegicus = species on record: Rattus norvegicus; assay: Equieffective molar ratio (EMR) is ratio of concentrations of compound and dequalinium causing 50% inhibition of the After hyperpolarisation (AHP) in rat sympathetic neurons; type: functional, Sympathetic neuron

Chain of Small conductance calcium-activated potassium channel protein 2 (P70604 whole entry): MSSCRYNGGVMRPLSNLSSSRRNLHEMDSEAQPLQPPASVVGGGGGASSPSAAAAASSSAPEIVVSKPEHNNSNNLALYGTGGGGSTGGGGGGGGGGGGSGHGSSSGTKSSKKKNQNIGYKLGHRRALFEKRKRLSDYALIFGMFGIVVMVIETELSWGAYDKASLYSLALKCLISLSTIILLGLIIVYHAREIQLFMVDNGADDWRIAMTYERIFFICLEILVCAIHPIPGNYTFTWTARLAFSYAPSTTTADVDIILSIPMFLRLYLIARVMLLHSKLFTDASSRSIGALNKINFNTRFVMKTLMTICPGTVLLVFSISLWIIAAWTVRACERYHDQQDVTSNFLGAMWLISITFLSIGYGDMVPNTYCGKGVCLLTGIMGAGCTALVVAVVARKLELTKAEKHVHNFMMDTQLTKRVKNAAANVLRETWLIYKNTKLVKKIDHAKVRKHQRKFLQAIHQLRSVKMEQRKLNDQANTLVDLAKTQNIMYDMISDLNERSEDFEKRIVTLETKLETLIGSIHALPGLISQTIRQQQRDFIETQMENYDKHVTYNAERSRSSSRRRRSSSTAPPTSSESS

SMILES | IC50 [1] | EMR (Rattus norvegicus)
C1=C\c2ccc(cc2)C[n+]2ccc(c3ccccc32)NCCCCCCCCCCNc2cc[n+](c3ccccc23)Cc2ccc/1cc2 | 150 nM | 0.28
c1ccc2c(c1)c1cc[n+]2Cc2ccc(cc2)CCc2ccc(cc2)C[n+]2ccc(c3ccccc32)NCCCCCCCCCCN1 | 180 nM | 0.58
c1cc2cc(c1)-c1cccc(c1)C[n+]1ccc(c3ccccc31)NCCCCCCCCCCNc1cc[n+](c3ccccc13)C2 | 110 nM | 0.28
Nc1cc[n+](Cc2ccc(-c3ccc(C[n+]4ccc(N)c5ccccc54)cc3)cc2)c2ccccc12 | 380 nM | 0.4
Nc1cc[n+](Cc2ccc(CCc3ccc(C[n+]4ccc(N)c5ccccc54)cc3)cc2)c2ccccc12 | 410 nM | 0.71
c1ccc2c(c1)c1cc[n+]2Cc2ccc3c(c2)Cc2cc(ccc2-3)C[n+]2ccc(c3ccccc32)NCCCCCCCCCCN1 | 90 nM | 0.12
c1ccc(C[n+]2ccc(NCCCCCCCCCCNc3cc[n+](Cc4ccccc4)c4ccccc34)c3ccccc32)cc1 | 700 nM | 1
c1ccc2c(c1)c1cc[n+]2Cc2ccc(cc2)-c2ccc(cc2)C[n+]2ccc(c3ccccc32)NCCCCCCCCCCN1 | 170 nM | 0.28
Nc1cc[n+](Cc2ccc(Cc3ccc(C[n+]4ccc(N)c5ccccc54)cc3)cc2)c2ccccc12 | 450 nM | 0.39
Nc1cc[n+](Cc2cccc(-c3cccc(C[n+]4ccc(N)c5ccccc54)c3)c2)c2ccccc12 | 290 nM | 0.55
Nc1cc[n+](Cc2ccc3c(c2)Cc2cc(C[n+]4ccc(N)c5ccccc54)ccc2-3)c2ccccc12 | 310 nM | 0.33
Nc1cc[n+](Cc2ccc(/C=C\c3ccc(C[n+]4ccc(N)c5ccccc54)cc3)cc2)c2ccccc12 | 190 nM | 0.24
c1ccc2c(c1)c1cc[n+]2Cc2ccc(cc2)Cc2ccc(cc2)C[n+]2ccc(c3ccccc32)NCCCCCCCCCCN1 [UCL-1530] | 80 nM | 0.16
